Positions of bridges follow the written chain, without caps; N, C: chain ends. Non-standard residues stand in square brackets, D forms with d. Residues, ends and D or L forms follow the SMILES beside them. S5 = C=CCCC[C@](C)(N)C(=O)O; Nle = CCCC[C@H](N)C(=O)O
How the values were obtained:
[1] = test system: DocSTm (phosphorylation of EF-TuSTm); experiment: Dot blot EF-Tu phosphorylation assay; format: biochemical, Salmonella Typhimurium; settings: DocSTm 1 μM, EF-TuSTm 3 μM, peptide 10 μM to 5 nM (3-fold dilutions), 16 h RT, dot blot anti-phosphothreonine; compared at three times the DocSTm concentration; two independent experiments
Experimental: Samples were prepared in assay buffer [50 mM HEPES (pH 7.5), 25 mM (NH4)2SO4, 2 mM TCEP, 2 mM MgCl2, and 1 mM ATP] with a final concentration of recombinant Doc at 1 μM, recombinant EF-Tu at 3 μM, and varying concentrations of synthetic Phd peptides (final concentrations: 10 μM to 5 nM). EF-Tu (3 μM) in assay buffer was used as a negative control (no Doc and Phd peptide), while EF-Tu (3 μM) with Doc (1 μM) in assay buffer was used as a positive control (no Doc inhibitor). The final sample volume was 10 μL. Samples were incubated for 16 h at RT and subsequently spotted on a nitrocellulose membrane. Phosphorylated EF-Tu was detected by immunodecoration using a rabbit monoclonal antiphosphothreonine antibody (Abcam, ab218195) at 1:2000 dilution (1 h at 4 °C), followed by incubation with a goat antirabbit IgG (H + L) HRP conjugate antibody (Advansta) at 1:10,000 dilution (1 h at RT). Chemiluminescence was developed using the HRP Luminata Kit (Merck, WBLUR0100) and captured with an ImageQuant LAS4000 Western blot imaging system (GE HealthCare). Each peptide was tested in two independent experiments.

[2] = test system: DocSTm toxin; settings: DocSTm 5 μM, peptide 50 μM; for Average Tm of DocSTm in the presence of peptide: pH 8.0, average ± SD, replicates 3-48 (Table S3)
Summary of the method: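 Thermal shift with 5 μM recombinant Doc toxin and 50 μM Phd peptides in 20 mM K2HPO4, 50 mM (NH4)2SO4, pH 8.0, SYPRO Orange 3×, ramped 25–95 °C. Tm from Boltzmann fit; ΔTm is peptide-bound minus free DocSTm Tm, triplicates.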

Compound | Inhibition of EF-TuSTm phosphorylation by DocSTm (concentration needed for full inhibition) [1] | Average Tm of DocSTm in the presence of peptide [2] [°C] | ΔTm (thermal shift) of DocSTm in the presence of peptide ([2]; SYPRO Orange 3×, 20 mM K2HPO4, 50 mM (NH4)2SO4, pH 8.0, average Tm with peptide minus average Tm of free DocSTm, mean ± SD)
CCCC[C@H](NC(=O)[C@H](Cc1c[nH]c2ccccc12)NC(C)=O)C(=O)N[C@@H](CCCNC(=N)N)C(=O)N[C@@]1(C)CCCC=CCCC[C@@](C)(C(=O)N[C@H](C(=O)N[C@@H](CCCC)C(=O)N[C@@H](CCCNC(=N)N)C(=O)N[C@H](C(=O)N[C@@H](Cc2c[nH]cn2)C(=O)NCC(=O)N[C@@H](CC(N)=O)C(=O)N[C@@H](CCC(=O)O)C(=O)N[C@@H](CC(C)C)C(=O)N[C@@H](CCCNC(=N)N)C(=O)N[C@@H](CCC(=O)O)C(=O)N[C@@H](CC(C)C)C(=O)N[C@@H](C)C(=O)N[C@@H](CC(=O)O)C(=O)N[C@@H](CCCCN)C(=O)O)C(C)C)[C@@H](C)CC)NC(=O)[C@H](C)NC(=O)[C@H](Cc2ccccc2)NC(=O)[C@H](CCC(=O)O)NC1=O [Peptide 17] (Ac-W[Nle]R[S5]EFA[S5]I[Nle]RVHGNELRELADK-OH; staple 4-8) | required a higher concentration to achieve full inhibition | 61.3 ± 0.3 | –
CCCC[C@H](NC(=O)[C@H](Cc1c[nH]c2ccccc12)NC(C)=O)C(=O)N[C@@H](CC(=O)O)C(=O)N[C@@H](CC(N)=O)C(=O)N[C@@H](CCC(=O)O)C(=O)N[C@@H](Cc1ccccc1)C(=O)N[C@@H](C)C(=O)N[C@@H](C)C(=O)N[C@H](C(=O)N[C@@H](CCCC)C(=O)N[C@@H](C)C(=O)N[C@H](C(=O)N[C@@H](Cc1c[nH]cn1)C(=O)NCC(=O)N[C@@H](CCCNC(=N)N)C(=O)N[C@@H](CCC(N)=O)C(=O)N[C@@H](CC(C)C)C(=O)N[C@@H](CCCNC(=N)N)C(=O)N[C@@H](CCCNC(=N)N)C(=O)N[C@@H](CC(C)C)C(=O)N[C@@H](C)C(=O)N[C@@H](CC(N)=O)C(=O)N[C@@H](CCCCN)C(=O)O)C(C)C)[C@@H](C)CC [Peptide 30] (Ac-W[Nle]DNEFAAI[Nle]AVHGRQLRRLANK-OH) | higher than three times the DocSTm concentration | 56.7 ± 2.6 | ≈ 14 °C
CCCC[C@H](NC(=O)[C@H](Cc1c[nH]c2ccccc12)NC(C)=O)C(=O)N[C@@H](CCCNC(=N)N)C(=O)N[C@@H](CC(=O)O)C(=O)N[C@@H](CCC(=O)O)C(=O)N[C@@H](Cc1ccccc1)C(=O)N[C@@H](C)C(=O)N[C@@H](C)C(=O)N[C@H](C(=O)N[C@@H](CCCC)C(=O)N[C@@H](CCCNC(=N)N)C(=O)N[C@H](C(=O)N[C@@H](Cc1c[nH]cn1)C(=O)NCC(=O)N[C@@H](CC(N)=O)C(=O)N[C@@H](CCC(=O)O)C(=O)N[C@@H](CC(C)C)C(=O)N[C@@H](CCCNC(=N)N)C(=O)N[C@@H](CCC(=O)O)C(=O)N[C@@H](CC(C)C)C(=O)N[C@@H](C)C(=O)N[C@@H](CC(=O)O)C(=O)N[C@@H](CCCCN)C(=O)O)C(C)C)[C@@H](C)CC [Peptide 16] (Ac-W[Nle]RDEFAAI[Nle]RVHGNELRELADK-OH) | fully inhibited | 65.0 ± 0.4 | –
CCCC[C@H](NC(=O)[C@H](Cc1c[nH]c2ccccc12)NC(C)=O)C(=O)N[C@@H](CC(N)=O)C(=O)N[C@@H](CC(N)=O)C(=O)N[C@@H](CCC(=O)O)C(=O)N[C@@H](Cc1ccccc1)C(=O)N[C@@H](C)C(=O)N[C@@H](C)C(=O)N[C@H](C(=O)N[C@@H](CCCC)C(=O)N[C@@H](C)C(=O)N[C@H](C(=O)N[C@@H](Cc1c[nH]cn1)C(=O)NCC(=O)N[C@@H](CCCNC(=N)N)C(=O)N[C@@H](CCC(N)=O)C(=O)N[C@@H](CC(C)C)C(=O)N[C@@H](CCCNC(=N)N)C(=O)N[C@@H](CCCNC(=N)N)C(=O)N[C@@H](CC(C)C)C(=O)N[C@@H](C)C(=O)N[C@@H](CCCNC(=N)N)C(=O)N[C@@H](CCCCN)C(=O)O)C(C)C)[C@@H](C)CC [Peptide 33] (Ac-W[Nle]NNEFAAI[Nle]AVHGRQLRRLARK-OH) | higher than three times the DocSTm concentration | 63.0 ± 0.8 | –
CCCC[C@H](NC(=O)[C@H](Cc1c[nH]c2ccccc12)NC(C)=O)C(=O)N[C@@H](CCCNC(=N)N)C(=O)N[C@@H](CC(=O)O)C(=O)N[C@@H](CCC(=O)O)C(=O)N[C@@H](Cc1ccccc1)C(=O)N[C@@H](CCCNC(=N)N)C(=O)N[C@@H](C)C(=O)N[C@H](C(=O)N[C@@H](CCCC)C(=O)N[C@@H](CCCNC(=N)N)C(=O)N[C@H](C(=O)N[C@@H](Cc1c[nH]cn1)C(=O)NCC(=O)N[C@@]1(C)CCCC=CCCC[C@@](C)(C(=O)N[C@@H](CC(C)C)C(=O)N[C@@H](C)C(=O)N[C@@H](CC(=O)O)C(=O)N[C@@H](CCCCN)C(=O)O)NC(=O)[C@H](CCCNC(=N)N)NC(=O)[C@H](CC(C)C)NC(=O)[C@H](CCC(=O)O)NC1=O)C(C)C)[C@@H](C)CC [Peptide 21] (Ac-W[Nle]RDEFRAI[Nle]RVHG[S5]ELR[S5]LADK-OH; staple 15-19) | required a higher concentration to achieve full inhibition | 61.1 ± 2.5 | –
CCCC[C@H](NC(=O)[C@H](Cc1c[nH]c2ccccc12)NC(C)=O)C(=O)N[C@@H](CC(N)=O)C(=O)N[C@@H](CC(N)=O)C(=O)N[C@@H](CCC(=O)O)C(=O)N[C@@H](Cc1ccccc1)C(=O)N[C@@H](C)C(=O)N[C@@H](C)C(=O)N[C@H](C(=O)N[C@@H](CCCC)C(=O)N[C@@H](C)C(=O)N[C@H](C(=O)N[C@@H](Cc1c[nH]cn1)C(=O)NCC(=O)N[C@@H](CCCNC(=N)N)C(=O)N[C@@H](CCC(N)=O)C(=O)N[C@@H](CC(C)C)C(=O)N[C@@H](CCCNC(=N)N)C(=O)N[C@@H](CCCNC(=N)N)C(=O)N[C@@H](CC(C)C)C(=O)N[C@@H](C)C(=O)N[C@@H](CC(N)=O)C(=O)N[C@@H](CCCCN)C(=O)O)C(C)C)[C@@H](C)CC [Peptide 31] (Ac-W[Nle]NNEFAAI[Nle]AVHGRQLRRLANK-OH) | higher than three times the DocSTm concentration | 61.6 ± 1.9 | –
CCCC[C@H](NC(=O)[C@H](Cc1c[nH]c2ccccc12)NC(C)=O)C(=O)N[C@@H](CCCNC(=N)N)C(=O)N[C@@H](CC(=O)O)C(=O)N[C@@H](CCC(=O)O)C(=O)N[C@@H](Cc1ccccc1)C(=O)N[C@@H](C)C(=O)N[C@@H](C)C(=O)N[C@H](C(=O)N[C@@H](CCCC)C(=O)N[C@@H](CCCNC(=N)N)C(=O)N[C@H](C(=O)N[C@@H](Cc1c[nH]cn1)C(=O)NCC(=O)N[C@@]1(C)CCCC=CCCC[C@@](C)(C(=O)N[C@@H](CC(C)C)C(=O)N[C@@H](C)C(=O)N[C@@H](CC(=O)O)C(=O)N[C@@H](CCCCN)C(=O)O)NC(=O)[C@H](CCCNC(=N)N)NC(=O)[C@H](CC(C)C)NC(=O)[C@H](CCC(=O)O)NC1=O)C(C)C)[C@@H](C)CC [Peptide 18] (Ac-W[Nle]RDEFAAI[Nle]RVHG[S5]ELR[S5]LADK-OH; staple 15-19) | required a higher concentration to achieve full inhibition | 66.3 ± 0.2 | –
CCCC[C@H](NC(=O)[C@H](Cc1c[nH]c2ccccc12)NC(C)=O)C(=O)N[C@@H](CCCNC(=N)N)C(=O)N[C@@]1(C)CCCC=CCCC[C@@](C)(C(=O)N[C@H](C(=O)N[C@@H](CCCC)C(=O)N[C@@H](CCCNC(=N)N)C(=O)N[C@H](C(=O)N[C@@H](Cc2c[nH]cn2)C(=O)NCC(=O)N[C@@H](CC(N)=O)C(=O)N[C@@H](CCC(=O)O)C(=O)N[C@@H](CC(C)C)C(=O)N[C@@H](CCCNC(=N)N)C(=O)N[C@@H](CCC(=O)O)C(=O)N[C@@H](CC(C)C)C(=O)N[C@@H](C)C(=O)N[C@@H](CC(=O)O)C(=O)N[C@@H](CCCCN)C(=O)O)C(C)C)[C@@H](C)CC)NC(=O)[C@H](CCCNC(=N)N)NC(=O)[C@H](Cc2ccccc2)NC(=O)[C@H](CCC(=O)O)NC1=O [Peptide 20] (Ac-W[Nle]R[S5]EFR[S5]I[Nle]RVHGNELRELADK-OH; staple 4-8) | required a higher concentration to achieve full inhibition | 60.4 ± 0.4 | –
CCCC[C@H](NC(=O)[C@H](Cc1c[nH]c2ccccc12)NC(C)=O)C(=O)N[C@@H](CC(=O)O)C(=O)N[C@@H](CC(N)=O)C(=O)N[C@@H](CCC(=O)O)C(=O)N[C@@H](Cc1ccccc1)C(=O)N[C@@H](C)C(=O)N[C@@H](C)C(=O)N[C@H](C(=O)N[C@@H](CCCC)C(=O)N[C@@H](C)C(=O)N[C@H](C(=O)N[C@@H](Cc1c[nH]cn1)C(=O)NCC(=O)N[C@@H](CCCNC(=N)N)C(=O)N[C@@H](CCC(N)=O)C(=O)N[C@@H](CC(C)C)C(=O)N[C@@H](CCCNC(=N)N)C(=O)N[C@@H](CCCNC(=N)N)C(=O)N[C@@H](CC(C)C)C(=O)N[C@@H](C)C(=O)N[C@@H](CCCNC(=N)N)C(=O)N[C@@H](CCCCN)C(=O)O)C(C)C)[C@@H](C)CC [Peptide 32] (Ac-W[Nle]DNEFAAI[Nle]AVHGRQLRRLARK-OH) | close to the activity of peptide 1 | 62.6 ± 1.2 | –

From article PMC10728895, “Stapled Phd Peptides Inhibit Doc Toxin Induced Growth Arrest in Salmonella” (ACS Chemical Biology, 2023)
